Results taken from US9113629B2, “4-amino-6-(4-substituted-phenyl)-picolinates and 6-amino-2-(4-substituted-phenyl)-pyrimidine-4-carboxylates and their use as herbicides” (DOW AGROSCIENCES LLC, priority 2013, dated 2015).
Where two headings read alike, the source gives them in different places.

Columns and labels:
[1] = test system: Key Broadleaf Weed and Crop Species; test: Post-emergent Test II herbicidal activity (Table 5); format: in vivo; details: post-emergence, 336 h, 14 days after application; for pest or weed control at 70 g/ha: application rate 70 g ai/ha; for pest or weed control at 140 g/ha: application rate 140 g ai/ha
Experimental: (§1) Post-emergent Test II: Seeds or nutlets of the desired test plant species were planted in Sun Gro Metro-Mix® 360 planting mixture, which typically has a pH of 6.0 to 6.8 and an organic matter content of about 30 percent, in plastic pots with a surface area of 64 square centimeters. When required to ensure good germination and healthy plants, a fungicide treatment and/or other chemical or physical treatment was applied. The plants were grown for 7-21 d in a greenhouse with an approximate 15 h photoperiod which was maintained at about 23-29° C. during the day and 22-28° C. during the night. Nutrients and water were added on a regular basis and supplemental lighting was provided with overhead metal halide 1000-Watt lamps as necessary. The plants were employed for testing when they reached the first or second true leaf stage.
(§2) A weighed amount, determined by the highest rate to be tested, of each test compound was placed in a 25 mL glass vial and was dissolved in 4 mL of a 97:3 v/v mixture of acetone and DMSO to obtain concentrated stock solutions. […] The concentrated stock solutions obtained were diluted with 20 mL of an aqueous mixture containing acetone, water, isopropyl alcohol, DMSO. Atplus 411F crop oil concentrate, and Triton® X-155 surfactant in a 48.5:39:10:1.5:1.0:0.02 v/v ratio to obtain spray solutions containing the highest application rates. Additional application rates were obtained by serial dilution of 12 mL of the high rate solution into a solution containing 2 mL of 97:3 v/v mixture of acetone and DMSO and 10 mL of an aqueous mixture containing acetone, water, isopropyl alcohol, DMSO, Atplus 411F crop oil concentrate, and Triton X-155 surfactant in a 48.5:39:10:1.5:1.0:0.02 v/v ratio to obtain ½×, ¼×, ⅛× and 1/16× rates of the high rate. Compound requirements are based upon a 12 mL application volume at a rate of 187 liters per hectare (L/ha). Formulated compounds were applied to the plant material with an overhead Mandel track sprayer equipped with 8002E nozzles calibrated to deliver 187 L/ha over an application area of 0.503 square meters at a spray height of 18 inches (43 cm) above the average plant canopy height. Control plants were sprayed in the same manner with the solvent blank.
(§3) The treated plants and control plants were placed in a greenhouse as described above and watered by subirrigation to prevent wash-off of the test compounds. After 14 d, the condition of the test plants as compared with that of the untreated plants was determined visually and scored on a scale of 0 to 100 percent where 0 corresponds to no injury and 100 corresponds to complete kill.

[2] = test system: Key Grass and Sedge Weeds as well as Grass Crops; test: Post-emergent Test II herbicidal activity (Table 6); format: in vivo; details: post-emergence, 336 h; for pest or weed control at 70 g/ha: application rate 70 g ai/ha; for pest or weed control at 140 g/ha: application rate 140 g ai/ha
Experimental: as §1, §2, §3

[3] = ABUTH: velvetleaf (Abutilon theophrasti), read-out: Visual Growth Reduction (%) 14 Days After Application, ABUTH
[4] = AMARE: redroot pigweed (Amaranthus retroflexus), read-out: Visual Growth Reduction (%) 14 Days After Application, AMARE
[5] = BRSNN: oilseed-rape, canola (Brassica napus), read-out: Visual Growth Reduction (%) 14 Days After Application, BRSNN
[6] = CHEAL: lambsquarters (Chenopodium album), read-out: Visual Growth Reduction (%) 14 Days After Application, CHEAL
[7] = EPHHL: wild poinsettia (Euphorbia heterophylla), read-out: Visual Growth Reduction (%) 14 Days After Application, EPHHL
[8] = HELAN: sunflower (Helianthus annuus), read-out: Visual Growth Reduction (%) 14 Days After Application, HELAN
[9] = VIOTR: wild pansy (Viola tricolor), read-out: Visual Growth Reduction (%) 14 Days After Application, VIOTR
[10] = Triticum aestivum, TRZSS (wheat), read-out: Visual Growth Reduction (%) 14 Days After Application, TRZSS
[11] = DIGSA: crabgrass (Digitaria sanguinalis), read-out: Visual Growth Reduction (%) 14 Days After Application, DIGSA
[12] = ECHCG: barnyardgrass (Echinochloa crus-galli), read-out: Visual Growth Reduction (%) 14 Days After Application, ECHCG
[13] = ORYSA: rice (Oryza sativa), read-out: Visual Growth Reduction (%) 14 Days After Application, ORYSA
[14] = SETFA: giant foxtail (Setaria faberi), read-out: Visual Growth Reduction (%) 14 Days After Application, SETFA
[15] = SORVU: grain sorghum (Sorghum vulgare), read-out: Visual Growth Reduction (%) 14 Days After Application, SORVU
[16] = ZEAMX: maize, corn (Zea mays), read-out: Visual Growth Reduction (%) 14 Days After Application, ZEAMX
[17] = CYPES: yellow nutsedge (Cyperus esculentus), read-out: Visual Growth Reduction (%) 14 Days After Application, CYPES

| Compound | pest or weed control at 70 g/ha [1, 3] [%] | pest or weed control at 140 g/ha [1, 3] [%] | pest or weed control at 70 g/ha [1, 4] [%] | pest or weed control at 140 g/ha [1, 4] [%] | pest or weed control at 70 g/ha [1, 5] [%] | pest or weed control at 140 g/ha [1, 5] [%] | pest or weed control at 70 g/ha [1, 6] [%] | pest or weed control at 140 g/ha [1, 6] [%] | pest or weed control at 70 g/ha [1, 7] [%] | pest or weed control at 140 g/ha [1, 7] [%] | pest or weed control at 70 g/ha [1, 8] [%] | pest or weed control at 140 g/ha [1, 8] [%] | pest or weed control at 70 g/ha [1, 9] [%] | pest or weed control at 140 g/ha [1, 9] [%] | pest or weed control at 70 g/ha [2, 10] [%] | pest or weed control at 140 g/ha [2, 10] [%] | pest or weed control at 70 g/ha [2, 11] [%] | pest or weed control at 140 g/ha [2, 11] [%] | pest or weed control at 70 g/ha [2, 13] [%] | pest or weed control at 140 g/ha [2, 13] [%] | other results |
| --- | --- | --- | --- | --- | --- | --- | --- | --- | --- | --- | --- | --- | --- | --- | --- | --- | --- | --- | --- | --- | --- |
| COC(=O)c1nc(-c2ccc(C(F)(F)F)c(F)c2)nc(N)c1OC [Compound 26, methyl 6-amino-2-(3-fluoro-4-(trifluoromethyl)phenyl)-5-methoxypyrimidine-4-carboxylate] | 85 to 94 | 85 to 94 | 60 to 74 | 75 to 84 | 30 to 44 | 30 to 44 | 0 to 29 | 0 to 29 | 95 to 100 | 95 to 100 | 85 to 94 | 85 to 94 | 0 to 29 | 0 to 29 | 45 to 59 | 45 to 59 | 0 to 29 | 0 to 29 | 0 to 29 | 0 to 29 | pest or weed control at 70 g/ha [2, 12]: 0 to 29%; pest or weed control at 140 g/ha [2, 12]: 0 to 29%; pest or weed control at 70 g/ha [2, 14]: 0 to 29%; pest or weed control at 140 g/ha [2, 14]: 0 to 29%; pest or weed control at 70 g/ha [2, 15]: 0 to 29%; pest or weed control at 140 g/ha [2, 15]: 0 to 29%; pest or weed control at 70 g/ha [2, 16]: 0 to 29%; pest or weed control at 140 g/ha [2, 16]: 45 to 59% |
| COC(=O)c1nc(-c2cccc(F)c2)c(F)c(N)c1Cl [Compound 183] | 75 to 84 | 95 to 100 | 95 to 100 | 95 to 100 | 60 to 74 | 85 to 94 | 95 to 100 | 95 to 100 | 95 to 100 | 95 to 100 | 85 to 94 | 85 to 94 | 0 to 29 | 0 to 29 | 0 to 29 | 0 to 29 | 0 to 29 | 0 to 29 | 0 to 29 | 0 to 29 | pest or weed control at 70 g/ha [2, 17]: 0 to 29%; pest or weed control at 140 g/ha [2, 17]: 0 to 29%; pest or weed control at 70 g/ha [2, 14]: 0 to 29%; pest or weed control at 140 g/ha [2, 14]: 0 to 29%; pest or weed control at 70 g/ha [2, 15]: 30 to 44%; pest or weed control at 140 g/ha [2, 15]: 45 to 59%; pest or weed control at 70 g/ha [2, 16]: 0 to 29%; pest or weed control at 140 g/ha [2, 16]: 0 to 29% |
